Measurements from patent EP0537742B1, “Styrene derivatives” (Mitsubishi Chemical Corporation, priority 1991, dated 1993).
Where two headings read alike, the source gives them in different places.

Columns and labels:
[1] = biological target: T1, human EGF (epidermal cell growth factor) receptor tyrosine kinase (Homo sapiens, UniProt P00533); assay: Tyrosine kinase activity inhibition (partially purified EGF receptor from A431 cell membrane fraction, RR-SRC peptide, 32P-ATP); format: biochemical; conditions: for inhibition at 10 µM: read-out: Inhibitory Rate (%) in the presence of 10 µM; for inhibition at 1 µM: read-out: Inhibitory Rate (%) in the presence of 1 µM
T1 construct: A431 cell membrane fraction, which was provided for the assay as the partially purified EGF receptor, enzyme source; endogenous in cells; host or cells: A431 (human squamous cell carcinoma), crude membrane fraction (27500 x g pellet)
T1 sequence (P00533 25-1210): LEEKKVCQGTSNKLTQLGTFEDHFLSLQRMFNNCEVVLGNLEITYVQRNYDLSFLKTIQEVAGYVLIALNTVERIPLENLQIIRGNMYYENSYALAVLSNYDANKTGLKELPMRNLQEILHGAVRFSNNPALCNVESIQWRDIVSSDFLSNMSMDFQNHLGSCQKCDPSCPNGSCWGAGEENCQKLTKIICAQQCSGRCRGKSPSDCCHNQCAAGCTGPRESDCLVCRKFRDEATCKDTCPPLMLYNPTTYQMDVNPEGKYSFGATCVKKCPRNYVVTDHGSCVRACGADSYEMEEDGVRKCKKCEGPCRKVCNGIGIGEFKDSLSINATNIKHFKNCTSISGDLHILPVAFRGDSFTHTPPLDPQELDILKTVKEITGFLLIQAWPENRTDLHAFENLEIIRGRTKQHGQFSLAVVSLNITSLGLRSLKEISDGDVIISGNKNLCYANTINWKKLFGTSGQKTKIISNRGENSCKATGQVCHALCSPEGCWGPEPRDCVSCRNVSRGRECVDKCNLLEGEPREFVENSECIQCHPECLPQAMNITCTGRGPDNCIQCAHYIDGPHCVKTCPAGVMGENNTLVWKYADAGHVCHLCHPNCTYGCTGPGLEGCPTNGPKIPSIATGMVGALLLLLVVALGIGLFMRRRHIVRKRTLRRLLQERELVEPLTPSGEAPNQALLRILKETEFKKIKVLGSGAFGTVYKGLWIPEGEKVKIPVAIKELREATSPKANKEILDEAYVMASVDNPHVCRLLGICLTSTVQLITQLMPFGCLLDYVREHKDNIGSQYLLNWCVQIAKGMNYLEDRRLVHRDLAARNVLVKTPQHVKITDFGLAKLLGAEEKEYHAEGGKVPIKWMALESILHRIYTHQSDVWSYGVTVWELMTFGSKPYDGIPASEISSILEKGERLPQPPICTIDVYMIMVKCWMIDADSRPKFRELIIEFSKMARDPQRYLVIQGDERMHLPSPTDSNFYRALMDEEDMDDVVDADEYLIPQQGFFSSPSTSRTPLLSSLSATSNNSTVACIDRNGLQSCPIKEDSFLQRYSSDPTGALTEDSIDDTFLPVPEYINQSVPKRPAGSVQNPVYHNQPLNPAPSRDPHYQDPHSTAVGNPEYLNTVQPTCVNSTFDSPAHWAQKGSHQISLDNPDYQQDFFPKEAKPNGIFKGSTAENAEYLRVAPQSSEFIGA
T1 sequence (P01133 971-1023 partner limits assumed): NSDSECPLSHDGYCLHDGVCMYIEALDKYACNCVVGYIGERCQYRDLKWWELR
Procedure: Detailed explanation of the assaying method will be given below.
A431 cells were cultivated in Dulbecco's modified Eagle's medium (DMEM) containing 10% fetal calf serum (FCS) at 37°C in a stream of 5% carbon dioxide, and the resultant cells were homogenized in a solution containing 10 mM N-2-hydroxyethylpiperazino-N'-2-ethanesulfonic acid (Hepes) buffer (pH 7.4), 0.25M sucrose and 0.1 mM EDTA and centrifuged at 1000 g for 5 minutes.
At that time the volume was 60 µl. The reaction was allowed to perform in ice for 30 minutes and stopped by adding 10 mg/ml bovine serum albumin (6 µl) and 20% trichloroacetic acid (25 µl). The mixture was allowed to stand in ice for 30 minutes.
Then the mixture was centrifuged at 5000 x g for 2 minutes, and the supernatant (40 µl) was sampled and adsorbed on P81 phosphocellulose paper. […] The count obtained was defined as "A". At the same time, counts of the reaction not containing the test material and the reaction not containing both the test material and EGF were assayed, and the resulted counts were defined as "B" and "C" respectively.

[2] = tested on: SKOV3 cell line; assay: Test on cancer cells in tissue culture (proliferation inhibition, MTT); format: cell-based; conditions: Homo sapiens, SK-OV-3, 72 h
Procedure: Effect of the test material against the proliferation of cultivated cancer cells was examined with this SKOV3 cell line as follows:
SKOV3 cell was inoculated at a rate of 1 x 10^3 cell/well on a 96 well dish, and cultivated on a DMEM: F12 (1 : 1) medium containing 10% FCS and 0.1 mg/ml kanamycin at 37°C in a stream of 5% carbon dioxide for one day. Test material dissolved in DMSO was added to the medium (final concentration of DMSO was below 0.1%), which was cultivated for 3 days under the conditions mentioned above. Test material was replaced every 24 hours together with the medium.
Counting the number of living cells was effected by making colorimetric analysis at two wave length, 550 nm and 610 nm, in reference to the assaying method as described in Michael C. Alley et al., Cancer Research, 48, 589 (1988) using MTT reagent, and the number obtained was defined as "a".
At the same time, the count of the number of living cells obtained without adding the test material was assayed, and the number obtained was defined as "b".
Cell proliferation inhibitory rate was determined according to the following equation: Inhibitory Rate (%) = (b-a)/b x 100 [formula]

[3] = Toxicity test, intraperitoneal administration; format: in vivo, Mouse ddy (male)
Procedure: Toxicity test for the compounds of the present invention was examined in the manner as shown below. Test compound Compound No. 4 Test animal Mouse ddy (male) 16 - 20 g
Test compound was suspended in a mixture of 0.25% carboxymethyl cellulose, physiological saline, and a small amount of Tween 80 to give a test solution. This solution was administered intraperitoneally at dose of 0 mg/kg (control), 500 mg/kg and 1000 mg/kg to the test animal. Change of the body weight was measured 3 days later.

[4] = Table 5: Proliferation Inhibitory Effect Against Cultivated Cells, 3 days, read-out: IC50
[5] = Tyrosine Kinase Activity Inhibitory Effect, test material 10 µM

IC50 [2, 4] [µM]	Structure (SMILES)	further results
34	N#CC(=Cc1cc(O)c(O)c(C#N)c1)C(=O)Nc1cccc(Cl)c1 [Compound No. 15, N-(3-chlorophenyl)-2-cyano-3-(3-cyano-4,5-dihydroxyphenyl) propenamide]	
24	N#CC(=Cc1cc(O)c(O)cc1[N+](=O)[O-])C(=O)Nc1cccc(Cl)c1 [Compound No. 16, N-(3-chlorophenyl)-2-cyano-3-(4,5-dihydroxy-2-nitrophenyl) propenamide]	
16	N#CC(=Cc1cc(O)c(O)c(C(F)(F)F)c1)C(=O)Nc1cccc(Cl)c1 [Compound No. 98, N-(3-chlorophenyl)-2-cyano-3-[3,4-dihydroxy-5-(trifluoromethyl)phenyl] propenamide]	
24	N#CC(C(=O)Nc1ccccc1)=C(O)c1ccc(O)c(O)c1 [Compound No. 119, 2-cyano-3-hydroxy-3-(3,4-dihydroxyphenyl) propenanilide]	
78	CCOc1cc(C=C(C#N)C(N)=O)cc(CSc2ccccc2)c1O [Reference 2), reference compound]	
19	N#CC(=Cc1cc(Br)c(O)c(Br)c1)C(=O)Nc1cccc(Cl)c1 [compound 100]	
13	COc1cc(C=C(C#N)C(=O)Nc2ccccc2)cc(Br)c1O [compound 105]	
14	Cc1cc(C=C(C#N)C(=O)Nc2cccc(Cl)c2)cc(O)c1O [compound 110]	

Second part, the molecule before the results:

Structure (SMILES)	IC50 [2, 4] [µM]	further results
COc1cc(C=C(C#N)C(=O)Nc2ccccc2)cc(Cl)c1O [Compound No. 1, 2-cyano-3-(3-chloro-4-hydroxy-5-methoxyphenyl) propeneanilide]	17.3	inhibition at 10 µM [1]: 63%
N#CC(=Cc1cc(O)c(O)c(Cl)c1)C(=O)Nc1ccccc1 [Compound No. 2, 2-cyano-3-(3-chloro-4,5-dihydroxyphenyl)propenanilide]	20.4	inhibition at 10 µM [1]: 74%
N#CC(=Cc1cc(O)c(O)c(Cl)c1)C(=O)Nc1cccc(Cl)c1 [Compound No. 4, N-(3-chlorophenyl)-2-cyano-3-(3-chloro-4,5-dihydroxyphenyl) propenamide]	21.6	dead case ([3]; 500 mg/kg intraperitoneally): No dead case was observed; dead case ([3]; 1000 mg/kg intraperitoneally): No dead case was observed
N#CC(=Cc1cc(O)c(O)c(Br)c1)C(=O)Nc1cccc(Cl)c1 [Compound No. 6, N-(3-chlorophenyl)-2-cyano-3-(3-bromo-4,5-dihydroxyphenyl) propenamide]	21	
COc1cc(C=C(C#N)C(=O)Nc2cccc(Cl)c2)cc(F)c1O [Compound No. 7, N-(3-chlorophenyl)-2-cyano-3-(3-fluoro-4-hydroxy-5-methoxyphenyl) propenamide]		inhibition at 1 µM [1]: 41%
N#CC(=Cc1cc(O)c(O)c(F)c1)C(=O)Nc1cccc(Cl)c1 [Compound No. 8, N-(3-chlorophenyl)-2-cyano-3-(3-fluoro-4,5-dihydroxyphenyl) propenamide]	23.4	inhibition at 1 µM [1]: 78%
N#CC(=Cc1cc(O)c(O)c(Br)c1Br)C(=O)Nc1cccc(Cl)c1 [Compound No. 9, N-(3-chlorophenyl)-2-cyano-3-(2,3-dibromo-4,5-dihydroxyphenyl) propenamide]	17	
N#CC(=Cc1ccc(O)c(O)c1)C(=O)Nc1ccc(Br)cc1 [Compound No. 10, N-(4-bromophenyl)-2-cyano-3-(3,4-dihydroxyphenyl) propenamide]		inhibition at 10 µM [1, 5]: 47%
N#CC(=Cc1ccc(O)c(O)c1)C(=O)Nc1cccc(Br)c1 [Compound No. 11, N-(3-bromophenyl)-2-cyano-3-(3,4-dihydroxyphenyl) propenamide]		inhibition at 10 µM [1, 5]: 77%
N#CC(=Cc1ccc(O)c(O)c1)C(=O)Nc1ccc(Cl)cc1 [Compound No. 12, N-(4-chlorophenyl)-2-cyano-3-(3,4-dihydroxyphenyl) propenamide]		inhibition at 10 µM [1, 5]: 52%
N#CC(=Cc1ccc(O)c(O)c1)C(=O)Nc1cccc(Cl)c1 [Compound No. 13, N-(3-chlorophenyl)-2-cyano-3-(3,4-dihydroxyphenyl) propenamide]	30	inhibition at 1 µM [1]: 46%; inhibition at 10 µM [1]: 100%
Cc1cccc(NC(=O)C(C#N)=Cc2ccc(O)c(O)c2)c1 [Compound No. 14, N-(3-methylphenyl)-2-cyano-3-(3,4-dihydroxyphenyl) propenamide]		inhibition at 10 µM [1]: 77%
N#CC(=Cc1ccc(O)c(O)c1)C(=O)Nc1ccccc1 [Reference 1), reference compound]		IC50 [2]: 35 µM
O=CNC=Cc1ccc(O)c(O)c1 [Reference 3), reference compound]		IC50 ([1]; Table 3, tyrosine kinase inhibition): 12 µM
